Test results as given in ChEMBL document CHEMBL3507680, “University of Dundee, Gates Library screen for HepG2 cell viability”.

Assay: Human HepG2 cell viability assay in 384 well format
Format: toxicity, cell-based
Design: dose 125 nL, time 70.5 hour; concentration not given beside the values
Details: HepG2 cells, read-out: Inhibition

Compound | cytotoxicity at 70.5 h
CSCc1cc(F)ccc1CNC(=O)N1CCCC(CO)C1 (configuration not stated) | -7.73%
CCc1nc(C)c(C(C)N(C)CCc2ccccn2)s1 (configuration not stated) | 9.61%
COc1ccc(CN(C(=O)C(C)SC)c2cnn(C)c2)c(OC)c1 (configuration not stated) | 1.09%
COc1ccc(S(=O)(=O)C(F)(F)F)cc1NC(=O)CSCC#N | 1.04%
O=C(C1CCCO1)N1CCC(c2nc(-c3ccccc3)n[nH]2)CC1 (configuration not stated) | 1.35%
Cc1ccccc1CC(C)(C)NC(=O)COc1cccc(C(N)=O)c1 | -0.108%
CCOc1ccccc1C(=O)N1CCn2c(nnc2C(F)(F)F)C1 | -1.86%
COc1ccc(CN(C(=O)C(C)C)c2cnn(C)c2)c(OC)c1 | -1.23%
Cc1nccn1-c1ccc(C(C)NCc2ncc[nH]2)cc1 (configuration not stated) | 12.6%
FCCOc1cccc(NCc2c[nH]nc2-c2cccnc2)c1 | -3.33%
CCN(CC)S(=O)(=O)c1ccc(OC)c(NC(=O)CSC)c1 | 12.2%
CC1CCCN(CCCNC(=O)c2cn(C)nc2-c2cccnc2)C1 (configuration not stated) | -2.34%
COCC(=O)NS(=O)(=O)c1ccc(F)c(F)c1 | -2.65%
CCCN1CCCC1c1nc(Cc2ccc(F)cc2)no1 (configuration not stated) | 15.1%
COc1cc(C)sc1C(=O)NCCC(=O)N(C)Cc1ccccc1 | -3.28%
CC(=O)N1CCCN(S(=O)(=O)c2cc3ccccc3o2)CC1 | 0.284%
Cn1cc(C(=O)NCCCN2CCCCCC2=O)c(-c2cccnc2)n1 | 11%
COc1cc(C)sc1C(=O)NCCC(=O)N(C)c1ccccc1 | -2.86%
Cc1noc(C)c1CNC(C)c1ccc(S(=O)(=O)N(C)C)cc1 (configuration not stated) | -2.42%
CCCNC(=O)CN1CCCC1c1nc(Cc2ccc(F)cc2)no1 (configuration not stated) | -4.46%
O=C(NCCc1cccnc1)NC1CCOC2(CCCCC2)C1 (configuration not stated) | 17.8%
Cc1cc(C(=O)Nc2ccc(CN3CCOCC3)cn2)n(C)n1 | -5.67%
Cc1nc(CNCC2CCCN(C(=O)OC(C)(C)C)C2)cs1 (configuration not stated) | 27.5%
COc1ccc(OCCNC(=O)c2ccc3c(=O)[nH][nH]c(=O)c3c2)cc1 | -0.259%

Compound | cytotoxicity at 70.5 h
O=C(NC1CCS(=O)(=O)c2ccccc21)c1cccs1 (configuration not stated) | -7.77%
CC(C)(CNC(=O)C1CCCN1S(C)(=O)=O)N1CCOCC1 (configuration not stated) | -11%
CCC(=O)Nc1ncn(Cc2cccnc2)n1 | 15.8%
CCOCCCC(=O)NCc1ccc(N2CCCCC2)cc1 | -11.1%
CC(C)CCn1ccc(NC(=O)N2CCCC2CN2CCOCC2)n1 (configuration not stated) | -7.64%
O=C(COc1ccc(-c2ccccc2)nc1)NCC1CC1 | -5.26%
CNC(=O)COc1ccc(-c2ccccc2)nc1 | -7.98%
CC(C)c1nnc2n1CCN(c1nn3cc(C(C)(C)C)nc3s1)C2 | -8.04%
Cc1ccc(C2CN(c3nnc(C(F)F)s3)CCO2)c(C)c1 (configuration not stated) | -4.44%
CN(C)C(=O)Cn1cc(C(=O)NCCc2ccc(Cl)cc2Cl)nn1 | -0.867%
Cc1c(C(=O)NCCC(=O)N2CCOCC2)sc2ccc(F)cc12 | 1.17%
N#Cc1cccc(OCCN2CCCC2C(=O)NCC(F)(F)F)c1 (configuration not stated) | -0.526%
Cc1nc(C(=O)N(C)C)nn1-c1ccccc1C(C)C | 0.366%
CC(C)c1nc(CN2CCN(C(=O)CC3CCCCC3)CC2)no1 | 7.95%
Cc1ccc(C)c(CC(=O)NC2(C#N)CCOCC2)c1 | 1.6%
C1=C(c2c[nH]c3ncccc23)CCN(Cc2nnc(C3CC3)o2)C1 | 12.3%
CC(C)CNC(=O)CNC(=O)NC(c1nccs1)C1CC1 (configuration not stated) | 4.02%
CC(C)(C)C(=O)NCc1nccn1CCc1ccccc1 | -5.7%
CC(C)(O)CNC(=O)NCc1nccn1CCc1ccccc1 | -1.1%
Cc1noc(CN2CC=C(c3c[nH]c4ncccc34)CC2)n1 | 20.4%
CN(C(=O)NCc1nccn1CCc1ccccc1)C1CCC1 | 1.68%
O=C(NCc1nccn1CCc1ccccc1)NCC1(O)CCC1 | 1.18%
Cc1noc(CN(CCc2ccco2)Cc2cccc(C#N)c2)n1 | 2.9%
Cc1noc(CN(CCc2cccs2)Cc2cccc(C#N)c2)n1 | 0.848%

Compound | cytotoxicity at 70.5 h
Cc1nc(C(=O)N(C)CC2CCCO2)nn1-c1ccccc1C(C)C (configuration not stated) | -5.46%
CC(C)(C)OC(=O)N1CCC(C(=O)NCc2ccccc2)C1 (configuration not stated) | 7.59%
CCN(CC1CCOC1)C(=O)c1ccc(N(C)C)cc1F (configuration not stated) | -1.53%
N#Cc1cccc(OCCN2CCCC2C(=O)Nc2nccs2)c1 (configuration not stated) | 29%
c1ccc(-c2nc(CNC3CCCN(c4cccnn4)C3)no2)cc1 (configuration not stated) | 18.6%
NC(=O)c1ccc(N2CCCCC2)c(NC(=O)c2ccc(F)cc2F)c1 | 3.5%
O=C(NC1CC1)C1CCN(Cn2nc(-c3ccccc3)oc2=O)CC1 | 25.1%
NC(=O)c1ccc(N2CCCCC2)c(NC(=O)c2cc(Br)ccc2Cl)c1 | 16.1%
CCCNC(=O)Cc1c(C)nc2c(c1C)c(=O)[nH]n2C | 1.36%
NC(=O)C1CCN(Cn2nc(-c3ccc(F)cc3)oc2=O)C1 (configuration not stated) | -7.79%
CC(NC(=O)NCc1cscn1)c1ccc(N2CCOCC2)cc1 (configuration not stated) | -0.548%
CCc1nc(CN2CCCN(c3ncnc4ccsc34)CC2)no1 | 8.93%
CCc1nc(CN2CCCN(c3cnc4ccccc4n3)CC2)no1 | -2.11%
CC(C)(C)c1nc(CNC2CCCN(c3cccnn3)C2)no1 (configuration not stated) | -0.0267%
c1cnnc(N2CCCC(NCc3nc(-c4cccs4)no3)C2)c1 (configuration not stated) | -6.61%
NS(=O)(=O)CCNC(=O)C1(c2ccccc2)CC1 | -1.21%
Cc1cc(Cl)ccc1S(=O)(=O)NCC(C)N1CCN(C)CC1 (configuration not stated) | -0.894%
Cc1ccc(-c2ccc(C(=O)NCC(N)=O)c(F)c2)cc1 | 1.46%
Cc1nc(CN2CCN(c3ncnc4ccccc34)CC2)no1 | 4.67%
COc1ncccc1C(=O)NC1(c2cccc(F)c2)CCOCC1 | 22.6%
CN(C)c1cc(C(=O)NC2(c3cccc(F)c3)CCOCC2)ccn1 | -1.02%
Cc1cc(CNC(=O)NCc2ccccc2N2CCOCC2)no1 | 1.76%
CC(C)(C)OC(=O)N1CCCc2ccc(NCc3cc[nH]c3)cc21 | -9.07%
CC(C)C1CN(C(=O)c2ccccc2)CCS1 (configuration not stated) | 2.34%

Compound | cytotoxicity at 70.5 h
CC(C)C1CN(C(=O)c2ccncc2)CCS1 (configuration not stated) | -1.14%
CC(CNS(=O)(=O)c1cccc(Cl)c1)N1CCN(C)CC1 (configuration not stated) | -5.03%
Cc1ccc(S(=O)(=O)NCCCN2CCC(O)CC2)c(F)c1 | 18.4%
CN(Cc1ccc(F)cc1)C(=O)CN1CCCCC1Cn1cncn1 (configuration not stated) | -3.07%
CC(C)c1cccc(S(=O)(=O)NCCCN2CCC(O)CC2)c1 | 3.11%
CN1CC(C(=O)N2CCC(Oc3ccccc3Cl)CC2)CC1=O (configuration not stated) | -1.46%
Cc1cn2c(n1)CCC(NC(=O)CCOc1ccccc1F)C2 (configuration not stated) | -5.57%
Cc1cc(C)n(C2CN(CC(=O)N(C)Cc3cnn(C)c3)C2)n1 | -7%
O=C(c1ccoc1)N1CCN(Cc2ccccc2F)CC1 | -3.32%
Cc1ccc(CNC(=O)NC(C)CN2CCOCC2)s1 (configuration not stated) | -6.15%
COC(=O)N1CCN(Cc2csc(-c3ncccn3)n2)CC1 | -5.37%
O=C(COc1cccc2c1CCC2=O)NCC(F)(F)F | -2.4%
N#CCc1ccc(NC(=O)CNc2ccc(Br)cc2F)cc1 | -7.86%
Cc1ccc(C)c(NC(=O)c2cc(S(=O)(=O)N3CCSCC3)c[nH]2)c1 | 7.14%
Cc1nnc(NC(=O)c2cc(S(=O)(=O)N3CCSCC3)c[nH]2)s1 | -0.0324%
CC(CN1CCOCC1)NC(=O)NCc1cccs1 (configuration not stated) | -7.69%
CCc1nnc2n1CCN(C(=O)C(OC)c1ccccc1)C2 (configuration not stated) | -8.62%
c1cnc(N2CCC(NCc3cnc(C4CCC4)s3)CC2)nc1 | -11.5%
c1ccc(CN2CCC(NCCc3ccc4c(c3)CCO4)CC2)nc1 | 0.552%
COCCOc1cc(C(=O)N2CC(C)c3ccccc32)ccn1 (configuration not stated) | -11.1%
COc1cccc(NC(C(N)=O)c2ccc(Br)cc2)c1 (configuration not stated) | -10.7%
NC(=O)CN1CCC(NC(=O)N2CCCC2c2ccsc2)CC1 (configuration not stated) | -6.14%
CN(C(=O)CN1CCCc2cc(F)cc(F)c21)c1ccccc1 | -16.8%
CC(C)N(Cc1ccccc1)Cc1csc(-c2ncccn2)n1 | -10.1%

Compound | cytotoxicity at 70.5 h
Cc1nnc2n1CCN(C(=O)CN1C(=O)CCOc3ccccc31)C2 | -7.17%
Cc1noc(C)c1CN(C)C(=O)c1ccc2c(c1O)OC(C)(C)C2 | 1.38%
N#Cc1ccc(NCc2cccc(COC3CCOCC3)c2)nc1 | -2.1%
CC(C)Cc1nc(COc2ccc(N(C)C(N)=O)cc2)no1 | -2.35%
Cn1cccc1C(=O)NS(=O)(=O)c1cnn(-c2ccccc2F)c1 | 11.6%
COC(C)c1cccc(NC(=O)N(CCC#N)Cc2ccccn2)c1 (configuration not stated) | -6.49%
CCc1cnc(CN2C(=O)CC3(CCSC3)C2=O)o1 (configuration not stated) | 11.4%
CC(C)c1nc(S(=O)(=O)N2CCSc3ccccc32)c[nH]1 | -3.59%
O=C(C1CCCOC1)N1CCCCc2ccccc21 (configuration not stated) | -12.1%
CCN1CCN(C(=O)c2c[nH]c(C(C)C)n2)c2ccccc21 | 2.09%
CC(C)c1nnc(CN(C)C(c2ccccc2)c2ccc(F)cc2)o1 (configuration not stated) | -2.6%
O=C(C1CCCOC1)N1CCCc2ccccc21 (configuration not stated) | -4.78%
CC(C)c1nnc(CN(C)C(c2ccc(F)cc2)c2cccnc2)o1 (configuration not stated) | -2.85%
CCN1CCN(S(=O)(=O)c2cn(C(C)C)cn2)c2ccccc21 | -1.25%
Cc1cc(CNc2ccc3nc(C)sc3c2)no1 | -4.46%
COCCN(Cc1ccccc1)Cc1csc(-c2ncccn2)n1 | -4.86%
CC(C)N(CC(N)=O)Cc1csc(-c2ncccn2)n1 | -2.81%
CN(C)C(=O)c1csc(-c2ccoc2)n1 | 27.9%
OCC1(CNC2CCc3cc4c(cc32)OCCO4)CC1 (configuration not stated) | 22.1%
Cc1sc2nc(SC(C)c3nc(C(C)(C)C)no3)nc(N)c2c1C (configuration not stated) | 21.9%
CCN(C(=O)CN1CCCC1c1cccs1)c1ccccc1C (configuration not stated) | 30.3%
